{"source": "ChEMBL document CHEMBL5584237", "about": "“Design, synthesis, biological evaluation, and in silico studies of novel pyridopyridine derivatives as anticancer candidates targeting FMS kinase” (Eur J Med Chem, 2024)", "key": {"[1]": {"test_system": "A549", "assay": "Antiproliferative activity against human A549 cells assessed as cell growth inhibition", "format": "functional"}, "[2]": {"test_system": "NCI-H460", "assay": "Antiproliferative activity against human NCI-H460 cells assessed as cell growth inhibition", "format": "functional"}, "[3]": {"test_system": "COLO 205", "assay": "Antiproliferative activity against human COLO 205 cells assessed as cell growth inhibition", "format": "functional"}, "[4]": {"test_system": "HCT-15", "assay": "Antiproliferative activity against human HCT-15 cells assessed as cell growth inhibition", "format": "functional"}, "[5]": {"test_system": "SW-620", "assay": "Antiproliferative activity against human SW-620 cells assessed as cell growth inhibition", "format": "functional"}, "[6]": {"test_system": "SF-539", "assay": "Antiproliferative activity against human SF-539 cells assessed as cell growth inhibition", "format": "functional"}, "[7]": {"test_system": "MDA-MB-435", "assay": "Antiproliferative activity against human MDA-MB-435 cells assessed as cell growth inhibition", "format": "functional"}, "[8]": {"test_system": "SK-MEL-28", "assay": "Antiproliferative activity against human SK-MEL-28 cells assessed as cell growth inhibition", "format": "functional"}, "[9]": {"test_system": "PC-3", "assay": "Antiproliferative activity against human PC-3 cells assessed as cell growth inhibition", "format": "functional"}, "[10]": {"test_system": "MCF7", "assay": "Antiproliferative activity against human MCF7 cells assessed as cell growth inhibition", "format": "functional"}, "[11]": {"test_system": "Hs-578T", "assay": "Antiproliferative activity against human Hs-578T cells assessed as cell growth inhibition", "format": "functional"}, "[12]": {"test_system": "MDA-MB-468", "assay": "Antiproliferative activity against human MDA-MB-468 cells assessed as cell growth inhibition", "format": "functional"}, "[13]": {"assay": "Cytotoxicity against human WI-38 cells assessed as reduction in cell growth measured after 48 hrs by MTT assay", "format": "toxicity, cell-based"}, "[14]": {"assay": "Selectivity index, ratio of IC50 for human WI-38 cells to IC50 for human K562 cells", "format": "toxicity", "conditions": "WI-38 cells and K562 cells, read-out: Ratio IC50"}, "[15]": {"assay": "Selectivity index, ratio of IC50 for human WI-38 cells to IC50 for human MOLT-4 cells"}, "[16]": {"assay": "Selectivity index, ratio of IC50 for human WI-38 cells to IC50 for human NCI-H460 cells", "format": "toxicity", "conditions": "WI-38 cells and NCI-H460 cells, read-out: Ratio IC50"}, "[17]": {"assay": "Selectivity index, ratio of IC50 for human WI-38 cells to IC50 for human COLO 205 cells"}, "[18]": {"assay": "Selectivity index, ratio of IC50 for human WI-38 cells to IC50 for human HCT-15 cells"}, "[19]": {"assay": "Selectivity index, ratio of IC50 for human WI-38 cells to IC50 for human SF-295 cells"}, "[20]": {"assay": "Selectivity index, ratio of IC50 for human WI-38 cells to IC50 for human SF-539 cells"}, "[21]": {"assay": "Selectivity index, ratio of IC50 for human WI-38 cells to IC50 for human Malme-3M cells"}, "[22]": {"assay": "Selectivity index, ratio of IC50 for human WI-38 cells to IC50 for human M14 cells"}, "[23]": {"assay": "Selectivity index, ratio of IC50 for human WI-38 cells to IC50 for human SK-MEL-28 cells"}, "[24]": {"assay": "Selectivity index, ratio of IC50 for human WI-38 cells to IC50 for human OVCAR-3 cells"}, "[25]": {"assay": "Selectivity index, ratio of IC50 for human WI-38 cells to IC50 for human OVCAR-4 cells"}, "[26]": {"assay": "Selectivity index, ratio of IC50 for human WI-38 cells to IC50 for human 786-0 cells"}, "[27]": {"assay": "Selectivity index, ratio of IC50 for human WI-38 cells to IC50 for human RXF 393 cells"}, "[28]": {"assay": "Selectivity index, ratio of IC50 for human WI-38 cells to IC50 for human DU-145 cells"}, "[29]": {"assay": "Selectivity index, ratio of IC50 for human WI-38 cells to IC50 for human MCF7 cells", "format": "toxicity", "conditions": "WI-38 cells and MCF7 cells, read-out: Ratio IC50"}, "[30]": {"assay": "Selectivity index, ratio of IC50 for human WI-38 cells to IC50 for human MDA-MB-231 cells", "format": "toxicity", "conditions": "WI-38 cells and MDA-MB-231 cells, read-out: Ratio IC50"}, "[31]": {"assay": "Selectivity index, ratio of IC50 for human WI-38 cells to IC50 for human Hs-578T cells"}, "[32]": {"assay": "Selectivity index, ratio of IC50 for human HS27 cells to IC50 for human K562 cells"}, "[33]": {"assay": "Selectivity index, ratio of IC50 for human HS27 cells to IC50 for human A549 cells"}, "[34]": {"assay": "Selectivity index, ratio of IC50 for human HS27 cells to IC50 for human NCI-H460 cells"}, "[35]": {"assay": "Selectivity index, ratio of IC50 for human HS27 cells to IC50 for human COLO 205 cells"}, "[36]": {"assay": "Selectivity index, ratio of IC50 for human HS27 cells to IC50 for human HCT-15 cells"}, "[37]": {"assay": "Selectivity index, ratio of IC50 for human HS27 cells to IC50 for human HT-29 cells"}, "[38]": {"assay": "Selectivity index, ratio of IC50 for human HS27 cells to IC50 for human SNB-75 cells"}, "[39]": {"assay": "Selectivity index, ratio of IC50 for human HS27 cells to IC50 for human LOX IMVI cells"}, "[40]": {"assay": "Selectivity index, ratio of IC50 for human HS27 cells to IC50 for human OVCAR-3 cells"}, "[41]": {"assay": "Selectivity index, ratio of IC50 for human HS27 cells to IC50 for human 786-0 cells"}, "[42]": {"assay": "Selectivity index, ratio of IC50 for human HS27 cells to IC50 for human PC-3 cells"}, "[43]": {"assay": "Selectivity index, ratio of IC50 for human HS27 cells to IC50 for human MDA-MB-468 cells"}, "[44]": {"test_system": "Hep 3B2", "assay": "Induction of apoptosis in human Hep3B cells assessed as increase in cleaved caspase-3 expression at 3.38 uM measured after 48 hrs by Western blot analysis relative to control", "format": "functional"}, "[45]": {"test_system": "Hep 3B2", "assay": "Induction of apoptosis in human Hep3B cells assessed as increase in cleaved PARP expression measured after 48 hrs by Western blot analysis", "format": "functional, cell-based"}, "[46]": {"test_system": "Hep 3B2", "assay": "Cell cycle arrest in human Hep3B cells assessed as upregulation of cyclin B1 expression at 3.38 uM measured after 48 hrs by Western blot analysis", "format": "functional, cell-based"}, "[47]": {"test_system": "Hep 3B2", "assay": "Cell cycle arrest in human Hep3B cells assessed as upregulation of cyclin B1 expression at 0.5 x IC50 to IC50 measured after 48 hrs by Western blot analysis", "format": "functional, cell-based"}, "[48]": {"test_system": "Hep 3B2", "assay": "cells", "conditions": "Homo sapiens, Hep3B, 48 h"}}, "note": "Active and inactive are the calls of the source. The rule behind the calls is not given here.", "data": [{"smiles": "CCN1CCN(c2ccc(NC(=O)Nc3ccc(-c4cc(C(=O)NC(C)C)c5ncccc5n4)cc3)cc2C(F)(F)F)CC1", "values": [{"measurement": "TGI", "setting": "[1]", "value": 5.77, "unit": "µM"}, {"measurement": "GI50", "setting": "[2]", "value": 0.62, "unit": "µM"}, {"measurement": "TGI", "setting": "[2]", "value": 1.18, "unit": "µM"}, {"measurement": "GI50", "setting": "[3]", "value": 0.93, "unit": "µM"}, {"measurement": "TGI", "setting": "[3]", "value": 2.71, "unit": "µM"}, {"measurement": "GI50", "setting": "[4]", "value": 0.67, "unit": "µM"}, {"measurement": "TGI", "setting": "[4]", "value": 1.35, "unit": "µM"}, {"measurement": "GI50", "setting": "[5]", "value": 0.64, "unit": "µM"}, {"measurement": "TGI", "setting": "[5]", "value": 1.26, "unit": "µM"}, {"measurement": "GI50", "setting": "[6]", "value": 0.53, "unit": "µM"}, {"measurement": "TGI", "setting": "[6]", "value": 1.02, "unit": "µM"}, {"measurement": "GI50", "setting": "[7]", "value": 0.65, "unit": "µM"}, {"measurement": "TGI", "setting": "[7]", "value": 1.31, "unit": "µM"}, {"measurement": "GI50", "setting": "[8]", "value": 0.75, "unit": "µM"}, {"measurement": "TGI", "setting": "[8]", "value": 1.85, "unit": "µM"}, {"measurement": "GI50", "setting": "[9]", "value": 0.76, "unit": "µM"}, {"measurement": "TGI", "setting": "[9]", "value": 2.1, "unit": "µM"}, {"measurement": "GI50", "setting": "[10]", "value": 0.63, "unit": "µM"}, {"measurement": "TGI", "setting": "[10]", "value": 1.5, "unit": "µM"}, {"measurement": "GI50", "setting": "[11]", "value": 0.88, "unit": "µM"}, {"measurement": "TGI", "setting": "[11]", "value": 3.45, "unit": "µM"}, {"measurement": "GI50", "setting": "[12]", "value": 0.77, "unit": "µM"}, {"measurement": "TGI", "setting": "[12]", "value": 1.85, "unit": "µM"}, {"measurement": "IC50 at 48 h", "setting": "[13]", "value": 16.2, "unit": "µM"}, {"measurement": "selectivity ratio", "setting": "[14]", "value": 15.4}, {"measurement": "Ratio IC50", "setting": "[15]", "value": 15.43}, {"measurement": "selectivity ratio", "setting": "[16]", "value": 6.4}, {"measurement": "Ratio IC50", "setting": "[17]", "value": 18.84}, {"measurement": "Ratio IC50", "setting": "[18]", "value": 18.84}, {"measurement": "Ratio IC50", "setting": "[19]", "value": 8.71}, {"measurement": "Ratio IC50", "setting": "[20]", "value": 8.71}, {"measurement": "Ratio IC50", "setting": "[21]", "value": 8.62}, {"measurement": "Ratio IC50", "setting": "[22]", "value": 8.62}, {"measurement": "Ratio IC50", "setting": "[23]", "value": 8.62}, {"measurement": "Ratio IC50", "setting": "[24]", "value": 5.89}, {"measurement": "Ratio IC50", "setting": "[25]", "value": 5.89}, {"measurement": "Ratio IC50", "setting": "[26]", "value": 10.52}, {"measurement": "Ratio IC50", "setting": "[27]", "value": 10.52}, {"measurement": "Ratio IC50", "setting": "[28]", "value": 21.6}, {"measurement": "selectivity ratio", "setting": "[29]", "value": 10.1}, {"measurement": "selectivity ratio", "setting": "[30]", "value": 10.1}, {"measurement": "Ratio IC50", "setting": "[31]", "value": 10.06}, {"measurement": "Ratio IC50", "setting": "[32]", "value": 8}, {"measurement": "Ratio IC50", "setting": "[33]", "value": 3.32}, {"measurement": "Ratio IC50", "setting": "[34]", "value": 3.32}, {"measurement": "Ratio IC50", "setting": "[35]", "value": 9.77}, {"measurement": "Ratio IC50", "setting": "[36]", "value": 9.77}, {"measurement": "Ratio IC50", "setting": "[37]", "value": 9.77}, {"measurement": "Ratio IC50", "setting": "[38]", "value": 4.52}, {"measurement": "Ratio IC50", "setting": "[39]", "value": 4.47}, {"measurement": "Ratio IC50", "setting": "[40]", "value": 3.05}, {"measurement": "Ratio IC50", "setting": "[41]", "value": 5.45}, {"measurement": "Ratio IC50", "setting": "[42]", "value": 11.2}, {"measurement": "Ratio IC50", "setting": "[43]", "value": 5.22}, {"measurement": "fold change (FC)", "setting": "[44]", "value": 473.5}, {"measurement": "Activity", "setting": "[45]", "value": "Dose-Dependent Effect"}, {"measurement": "Activity", "setting": "[46]", "value": "Active"}, {"measurement": "Activity", "setting": "[47]", "value": "inactive"}, {"measurement": "IC50", "setting": "[48]", "value": 1.69, "unit": "µM"}]}]}
